# Test results published in publication PMC7200681, “The calcitonin-like system is an ancient regulatory system of biomineralization” (Scientific Reports, 2020).
# Bridge positions count the residues as written; N and C are the ends.
# How the values were obtained:
# mussel mantle cells = assay: Calcium uptake by isolated mantle cells (calcein fluorescence); assay type: cell-based, Mytilus galloprovincialis; details: CALCIIa 10 μM, 4 hours, calcein 50 mM
# Protocol: Figure 7 Effect of the mussel calcitonin-like peptide on (A) calcium (ppm) concentration in the mantle edge and (B) calcium uptake by mantle cells of the Mediterranean mussel. (A) The quantity of calcium (ppm) present in the mantle edge after mussel CALCIIa peptide incubation was measured using a Microwave Plasma-Atomic Emission Spectrometer (MP-AES, Agilent) at 393.366 nm. A standard curve for calcium was performed before analysing the samples. In vitro mantle assays with CALCIIa peptide and with ouabain and control (culture medium and mantle) were repeated on at least 3 independent occasions. […] An increase in cellular fluorescence represents an increase in calcium uptake. Fluorescence of the CALCIIa peptide stimulated cells was 1.9 times higher than the control. The average mantle cell size was 3–4 μm and fluorescent images were taken using a Leica DM IL microscope coupled to a Visicam HDMI 6 digital camera and photographs were analysed using ImageJ software (v. 1.52a) to calculate the fluorescence intensity and for image overlay. […]
# Mantle cells were isolated from Mediterranean mussel mantle edge explants of the posterior region and were incubated with the CALCIIa peptide. […] Photographs were analysed for image overlay and to calculate fluorescence intensity (corrected total cell fluorescence, CTCF) using ImageJ software (v. 1.52a). […]
# mussel CALCRIIa = assay: Calcium mobilization assay (apoaequorin bioluminescence), dose-response, HEK 293 cells expressing mussel CALCRIIa; assay type: cell-based, Mytilus galloprovincialis; details: calcium mobilization, HEK 293/apoaequorin, 1 μM to 0.01 nM
# From the text: (§1) The complete sequence of the Mediterranean mussel CALCRIa was amplified using specific primers (Table 1) from cDNA of a tissue mixture (mantle, adductor muscle, gills, gonads) using a proofreading DNA polymerase (iProof BIORAD, Portugal) and cloned into the pGEMT-easy vector (PROMEGA, Spain). The Mediterranean mussel CALCRIIa transcript that was found in the mantle transcriptome was incomplete and lacked the N-terminus (by comparisons with the hard-shelled mussel homologue) and so the remaining sequence (from 1–393 bp) was deduced from the hard-shelled mussel homologue receptor and the receptor was synthesised and supplied by GENESCRIPT (USA). The complete transcripts for mussel CALCRIc, CALCRIIb and CALCRIIc were only found in the hard-shelled mussel mantle transcriptome and homologues were only found in the Mediterranean mussel genome as they were absent from the species mantle transcriptome and so they were also synthesised and supplied by GENESCRIPT (USA) using the hard-shelled mussel receptor sequences as template. The mussel CALCRIb transcript was incomplete and lacked both N and C-terminal regions and it was not possible to obtain the complete transcript either by searching both mussels mantle transcriptomes or the Mediterranean mussel genome and so it was not produced. All synthetized receptors were provided in the pUC57 cloning vector by the company and receptor codon usage was optimized to favour a high level of expression in mammalian cells.
# Mammalian cell cultures and transfections followed the methodology described by[89],[90]. Mammalian HEK293 cells (ECACC, UK) were used and they were maintained in complete Dulbecco’s modified Eagle’s medium (DMEM, 4.5 g/l glucose, 110 mg/l sodium pyruvate and L-glutamine, SIGMA-ALDRICH, Spain) supplemented with 10% sterile foetal bovine serum (FBS), 0.1% penicillin: streptomycin antibiotic mix (10,000 U:10 mg/ml, Sigma) and 250 μg /ml sterile filtered 1:100 amphotericin B solution (SIGMA-ALDRICH) in a humid 5% CO2 incubator (HERAEUS, Portugal) at 37 °C. On the day prior to transfection, 2–3 × 10^5 HEK293 cells were seeded on 6 well plates (SARSTEDT, Portugal) and transfected with Fugene HD transfection reagent (2 DNA: 4 Fugene ratio, PROMEGA) following the manufacturer’s protocol. Seventy-two hours after transfection, 800 μg/ml of the antibiotic Geneticin (SIGMA-ALDRICH) was added to the medium to select and isolate stable receptor cell lines. Cell recovery was monitored daily and the medium was changed every two days until no cell death was observed. […]
# (§2) HEK293 cells stably expressing five mussel receptors (CALCRIa, CALCRIc, CALCRIIa, CALCRIIb and CALCRIIc) were stimulated with the two mussel peptides and the vertebrate (human and salmon) calcitonins. Receptor activation was assessed in vitro by measuring two intracellular signalling pathways: a) production of cAMP and b) mobilization of calcium (Ca^2+). The cellular response was initially assessed using 10 μM of each peptide. […]
# Stable cell lines expressing the mussel receptors were transiently co-transfected with the mitochondrial targeted apo-aequorin protein cloned in pcDNA3.1. Two days after transfection cells were washed, counted and resuspended in 1 ml of DMEM /F12 Ham (without phenol red)/0.1% BSA supplemented with 2 µM coelenterazine (SIGMA-ALDRICH). […] The injector system of the Biotek Synergy 4 microplate reader (USA) was used to inject 50 µl of the cell suspensions into wells containing 50 μl of the diluted peptide in DMEM / F12 Ham / 0.1% BSA. […]
# mussel CALCRIIc = assay: Calcium mobilization assay (apoaequorin bioluminescence), dose-response, HEK 293 cells expressing mussel CALCRIIc; assay type: cell-based, Mytilus coruscus; details: HEK 293/apoaequorin, 1 μM to 0.01 nM
# From the text: as §1, with “The mussel CALCRIb transcript was incomplete and lacked both N and C-terminal regions and it was not possible to obtain the complete transcript either by searching both mussels mantle transcriptomes or the Mediterranean mussel genome and so it was not produced. All synthetized receptors were provided in the pUC57 cloning vector by the company and receptor codon usage was optimized to favour a high level of expression in mammalian cells.” left out
# Mammalian cell cultures and transfections followed the methodology described by[89],[90]. […] Cell recovery was monitored daily and the medium was changed every two days until no cell death was observed. […]
# as §2
# Stable cell lines expressing the mussel receptors were transiently co-transfected with the mitochondrial targeted apo-aequorin protein cloned in pcDNA3.1. Two days after transfection cells were washed, counted and resuspended in 1 ml of DMEM /F12 Ham (without phenol red)/0.1% BSA supplemented with 2 µM coelenterazine (SIGMA-ALDRICH). […]
substance,measurement,setting,value
"H-CTWGGGMSDEMCSTVDIDEIQRSFQVIHDRNSP-NH2 (disulfide 1-12 (inferred)) [CALCIIa, Mediterranean mussel calcitonin-like mature peptide, 33 aa, synthesized with disulphide bond and C-terminal amidation]",Increase in intensity of fluorescent calcium staining versus control mantle cells,mussel mantle cells; ImageJ CTCF,1.9 times
same,Mean corrected total cell fluorescence (CTCF) of mantle cells,mussel mantle cells; control = 1405154,2654581
same,Activation of mussel CALCRIIa in dose-response analysis (in words),mussel CALCRIIa,not activated
same,Activation of mussel CALCRIIc in dose-response analysis (in words),mussel CALCRIIc,exclusively activated
